From patent US20120035187A1 (priority 2009, published 2012)
Like-named read-outs stand apart in the source and are kept apart here. Marks after values point to notes of the source that are not given here.

Columns and labels:
[1] = test system: PC12-HS cells; type: cell-based, rat
[2] = test system: hamsters with cerebellar ataxia; assay: Concentration of glutamic acid in cerebrospinal fluid (CSF); type: in vivo, hamster; details: 10-weeks of age
From the text: Since NK-4 was confirmed to have a neurodegenerative inhibitory action in Experiment 1, hamsters with cerebellar ataxia (cerebellar ataxia is called “cerebellar A” and hamsters with cerebellar ataxia are called “hamsters with cerebellar A”, hereinafter) as a suitable model for human neurodegenerative diseases (e.g., spinal cerebellar degeneration) were subjected to examine the influence of NK-4 administration on their behaviors and brain tissues. Twenty-five hamsters with natural mutation (Nna1 inhibition), which are known to lose Purkinje's cells after three-weeks of age and then induce a spontaneous onset of kinetic motor ataxia after seven-weeks of age (see Akita K. et al., “J. Neurogenetics”, Vol. 21, pp. 19-29, 2007), had been fed at Hayashibara Biochemical Laboratories., Inc., Okayama, Japan, were randomly allocated to the test groups 1 to 5, five heads in each group, as shown in Table 2. Prior to the onset of cerebellar A (at three-weeks of age), PBS was started to administer to the hamsters in the test group 1 at a dose of 10 ml/kg/day. Prior to the onset of cerebellar A (at three-weeks of age), NK-4 was started to be administered to the hamsters in the test groups 2 to 4 at a daily dose of 20 μg/kg, 100 μg/kg or 500 μg/kg. “IGF-1, human, a product name of insulin-like growth factor, commercialized by Assaypro LLC, MO, USA. These administered ingredients were intraperitoneally administered daily to hamsters once a day up to 10-weeks of age. The degree of symptom of cerebellar A and the improvement effect on the symptom by NK-4 were evaluated with an index of improvement in motor coordination of hamsters by conducting once a week the later described rotarod test and the slant tolerance test. At the age of 10-weeks, the hamsters were subjected to counting the falling down frequency and extracted their brains, which were then histologically evaluated. In parallel, the concentration of glutamic acid in the bloods and cerebrospinal fluids (CSF) of the hamsters was assayed. As a test group 6, five normal hamsters, with the same age as the hamsters with cerebellar A used in the test groups 1 to 5, were provided and tested similarly as the hamsters with cerebellar A in such a manner of intraperitoneally administering PBS to them at a dose of 10 ml/kg/day once a day up to 10-weeks of age.
The content of glutamic acid, which is used for synthesizing gamma-amino butyric acid (GABA) as a main excitatory neurotransmitter and inhibitory neurotransmitter that regulate higher-order functions such as memory/learning in mammalian central nervous system, was assayed. In harvesting the brains from the above hamsters, they were blooded from their postcavas, followed by collecting CSF for use in the later described assay for glutamic acid concentration. […]

[3] = test system: APP Tg mouse; assay: Passive avoidance test, APP transgenic mouse; type: in vivo; details: for Passive avoidance reaction: intraperitoneal, five times a week for 12 weeks
[4] = test system: PC12-HS cells; details: 6-hydroxy dopa, 24 hours
Method: 6-Hydroxy dopa was used as a cytotoxic agent. Similarly as in Experiment 1, PC12-HS cells, which had been cultured in D-MEM medium supplemented with 10 v/v % FBS, were inoculated to 96-well microplates by 2×10^4/100 μl/well. […] Thereafter, the cells were fixed with 10% glutaraldehyde and the absorbance at 650 nm was measured by conventional dye-uptake method using methylene blue.

[5] = test system: intracellular cyclic adenosine monophosphate (AMP); assay: Increment of intracellular cyclic AMP; type: cell-based
[6] = test system: PC12-HS cells; assay: Apoptosis induced by amyloid β fragment, Hoechst 33258 staining; type: cell-based, rat; details: 50 μM amyloid β fragment, NK-4 200 ng/ml
Method: A plurality of peptide fragments (called “AMYLOID β FRAGMENT” commercialized by AnaSpec, Inc., CA, USA, each peptide having the amino acid sequence of SEQ ID NO:1), which have an amino acid sequence positioning from 25th to 35th from the N-terminus of amyloid R peptide with human origin and have been recognized as a main factor of neurocyte death in Alzheimer's disease, were diluted with phosphate buffered saline (PBS) to give a concentration of 2 mM, and used after being aged at 37° C. for six hours to coagulate them to increase their cytotoxicity before use. […] Viability (%) of cells in each well was determined and shown in Table 1 by calculating a relative value when the fluorescent intensity of the control was regarded as 100%. […] Thereafter, the cells were stained with […] Hoechst 33258 dye commercialized by SIGMA Corporation, Tokyo, Japan, for five min, observed at a magnitude corresponding to a visual filed containing about 100 cells under a phase contrast microscope and a fluorescent microscope, and counted. The occupied percentage (%) of cells with apoptosis against the total cells in one visual field was calculated and the data was also shown in Table 1. […]

[7] = test system: APP Tg mouse; assay: Novelty object recognition test, APP transgenic mouse; details: for Index for object discrimination: intraperitoneal, five times a week for 12 weeks
[8] = test system: SAPK/JNK; assay: Phosphorylation of SAPK/JNK by hydrogen-peroxide-induced cell injury; type: cell-based
[9] = i.p. five times a week for 12 weeks

## CCN1C=CC(=CC=C(C=Cc2cc[n+](CC)c3ccccc23)c2cc[n+](CC)c3ccccc23)c2ccccc21.[I-].[I-] [NK-4]
[1]; NK-4 50 ng/ml
  Survibal percentage of cells when admixed with cytotoxic factor (%) Hydrogen peroxide: 50%
[1]; NK-4 500 ng/ml
  Survibal percentage of cells when admixed with cytotoxic factor (%) Hydrogen peroxide: 50%
[1]; NK-4 5000 ng/ml
  Survibal percentage of cells when admixed with cytotoxic factor (%) Hydrogen peroxide: 70 ** %
[1]; NK-4 50000 ng/ml
  Survibal percentage of cells when admixed with cytotoxic factor (%) Hydrogen peroxide: 90 ** %
[1]; PC12-HS cells
  concentration required for protection action against hydrogen peroxide injury: 5,000 ng/ml
[1]; PC12-HS cells, 200 μM hydrogen peroxide, 2 hours, NK-4 5 ng/ml
  Survibal percentage of cells when admixed with cytotoxic factor (%) Hydrogen peroxide: 51%
[2]; 20 μg/kg body weight
  Concentration of glutamic acid in cerebrospinal fluid: 7.2 ± 0.8 µM
[2]; 100 μg/kg body weight
  Concentration of glutamic acid in cerebrospinal fluid: 8.7 ± 2.6 µM
[2]; 500 μg/kg body weight
  Concentration of glutamic acid in cerebrospinal fluid: 9.5 ± 2.9 µM
[3]; dose 100 μg/kg body weight
  Passive avoidance reaction: 280 ± 20 s
[3]; dose 500 μg/kg body weight
  Passive avoidance reaction: 243 ± 25 s
[3]; [9]
  passive avoidance test (in words): improved the dementia
[4]
  suppression of cytotoxicity by 6-hydroxy dopa (in words): significantly suppressed
[4]; compound 0.83 ng/ml
  Survival-cell percentage (%): 59 ± 3%
[4]; compound 3.3 ng/ml
  Survival-cell percentage (%): 65 ± 4%
[4]; compound 13 ng/ml
  Survival-cell percentage (%): 69 ± 6 %
[4]; compound 50 ng/ml
  Survival-cell percentage (%): 70 ± 6 %
[4]; compound 200 ng/ml
  Survival-cell percentage (%): 76 ± 3 %
[4]; compound 800 ng/ml
  Survival-cell percentage (%): 92 ± 4 %
[5]
  increment of intracellular cyclic adenosine monophosphate (AMP): inducing the increment of intracellular cyclic adenosine monophosphate (AMP)
[6]
  Percentage of appoptosis-induced cells (%) Amyloid β fragment: 13 ** %
[7]; dose 100 μg/kg body weight
  Index for object discrimination: 0.20 ± 0.06
[7]; dose 500 μg/kg body weight
  Index for object discrimination: 0.30 ± 0.05
[7]; [9]
  adverse effect: No adverse effect
  object discrimination test (in words): improved the dementia
[8]
  phosphorylation of SAPK/JNK: inhibits the phosphorylation of SAPK/JNK
